Assay results from patent US5166321A, “Cecropin polypetides with activity against Gram-positive and Gram-negative bacteria” (International Genetic Engineering, Inc., priority 1987, dated 1992).
Square brackets hold non-standard residues; d marks the D form. Ends that are not written are not given here. Peptide text beside a SMILES is read from it. hSer = N[C@@H](CCO)C(=O)O

Tests used:
E. cloacae = assay: Agar-well halo assay of bactericidal activity; assay type: cell-based; conditions: overnight incubation at 25° C.
Method: (§1) The assay for antimicrobial activity was performed by pouring 10 ml of agar in TYE media containing about 10^7 viable cells of the test organisms. Wells, 2 mm in diameter, were punched in the agar plates. Aliquots of the modified cecropin-like polypeptides (2-12 ul) were then added to each well. The diameter of the inhibition zones, or haloes, around the wells, were measured after overnight incubation at 25° C.
(§2) The activities of various cecropin-like polypeptides were tested against both Gram-negative and Gram-positive organisms. Anti-microbial activity against the Gram-negative organisms remained unaltered for most of the Gram-negative bacteria (except, i.e., Serratia marcescens) as shown in Table 1. […] To determine a standard of halo formation, the various modified cecropin-like polypeptides were also applied to E. coli D21. Activity shown in Tables 1 and 2 is expressed as the ratio of the radius of the cleared halo for each organism versus that for E. coli D21.

B. subtilis = assay: Agar-well halo assay of bactericidal activity; assay type: cell-based, Bacillus subtilis; conditions: for Relative activity (ratio of the radius of the cleared halo versus that for E. coli D21): B. subtilis, overnight incubation at 25° C.
Method: as §1, §2
(§3) The cecropin-like polypeptide modified at the carboxy terminus with ethylenediamine and naturally occurring cecropin A were tested against a variety of organisms. The relative activities of the antimicrobial agents were expressed per nanomole of polypeptide applied to each well (Table 3).

S. typhimurium = assay: Agar-well halo assay of bactericidal activity; assay type: cell-based, Salmonella typhimurium; conditions: overnight incubation at 25° C.
Method: as §1, §2

P. aeruginosa = assay: Agar-well halo assay of bactericidal activity; assay type: cell-based, Pseudomonas aeruginosa; conditions: overnight incubation at 25° C.
Method: as §1, §2

E. coli MC1061 = assay: Agar-well halo assay of bactericidal activity; assay type: cell-based, Escherichia coli; conditions: overnight incubation at 25° C.
Method: as §1, §2

Streptococcus faecalis = assay: Agar-well halo assay of bactericidal activity; assay type: cell-based; conditions: for Relative activity (ratio of the radius of the cleared halo versus that for E. coli D21): S. faecalis, overnight incubation at 25° C.
Method: as §1, §2, §3

Bacillus megaterium [1] = assay: Agar-well halo assay of bactericidal activity; assay type: cell-based; conditions: for Relative activity (ratio of the radius of the cleared halo versus that for E. coli D21): B. megaterium, overnight incubation at 25° C.
Method: as §1, §2, §3

Micrococcus luteus = assay: Agar-well halo assay of bactericidal activity; assay type: cell-based; conditions: for Relative activity (ratio of the radius of the cleared halo versus that for E. coli D21): M. luteus, overnight incubation at 25° C.
Method: as §1, §2, §3

Bacillus megaterium [2] = conditions: from the literature; cited from earlier work
Escherichia coli = assay: Agar-well halo assay, activity per nanomole; assay type: cell-based; conditions: per nanomole of polypeptide applied to each well
Method: as §1, §3

Row | Molecule | Relative activity (ratio of the radius of the cleared halo versus that for E. coli D21) (E. cloacae) | Relative activity (ratio of the radius of the cleared halo versus that for E. coli D21) (B. subtilis) | Relative activity (ratio of the radius of the cleared halo versus that for E. coli D21) (S. typhimurium) | Relative activity (ratio of the radius of the cleared halo versus that for E. coli D21) (P. aeruginosa) | Relative activity (ratio of the radius of the cleared halo versus that for E. coli D21) (E. coli MC1061) | Relative activity (ratio of the radius of the cleared halo versus that for E. coli D21) (Streptococcus faecalis) | Relative activity (ratio of the radius of the cleared halo versus that for E. coli D21) (Bacillus megaterium [1]) | Relative activity (ratio of the radius of the cleared halo versus that for E. coli D21) (Micrococcus luteus) | Sensitivity of Bacillus megaterium to the cecropin (Bacillus megaterium [2]) | Activity per Nanomole (radius of the inhibitory ring) (Escherichia coli) [millimeters] | Activity per Nanomole (radius of the inhibitory ring) (B. subtilis; Bacillus subtilus, per nanomole of polypeptide applied to each well) [millimeters] | Activity per Nanomole (radius of the inhibitory ring) (Streptococcus faecalis; Streptococcus faecalis, per nanomole of polypeptide applied to each well) [millimeters] | Activity per Nanomole (radius of the inhibitory ring) (Bacillus megaterium [1]; Bacillus megaterium, per nanomole of polypeptide applied to each well) [millimeters] | Activity per Nanomole (radius of the inhibitory ring) (Micrococcus luteus; Micrococcus luteus, per nanomole of polypeptide applied to each well) [millimeters]
1 | CC[C@H](C)[C@H](NC(=O)CNC(=O)[C@H](CC(=O)O)NC(=O)[C@H](CCCNC(=N)N)NC(=O)[C@@H](NC(=O)[C@H](CC(N)=O)NC(=O)[C@H](CCC(N)=O)NC(=O)CNC(=O)[C@@H](NC(=O)[C@H](CCCCN)NC(=O)[C@H](CCC(=O)O)NC(=O)[C@@H](NC(=O)[C@H](CCCCN)NC(=O)[C@H](CCCCN)NC(=O)[C@H](Cc1ccccc1)NC(=O)[C@H](CC(C)C)NC(=O)[C@H](CCCCN)NC(=O)[C@H](Cc1c[nH]c2ccccc12)NC(=O)[C@@H](N)CCCCN)[C@@H](C)CC)C(C)C)[C@@H](C)CC)C(=O)N[C@H](C(=O)N[C@@H](CCCCN)C(=O)N[C@@H](C)C(=O)NCC(=O)N1CCC[C@H]1C(=O)N[C@@H](C)C(=O)N[C@H](C(=O)N[C@@H](C)C(=O)N[C@H](C(=O)N[C@H](C(=O)NCC(=O)N[C@@H](CCC(N)=O)C(=O)N[C@@H](C)C(=O)N[C@H](C(=O)N[C@@H](CCC(N)=O)C(=O)N[C@H](C(=O)N[C@@H](C)C(=O)N[C@@H](CCCCN)C(=O)N[C@@H](CCO)C(N)=O)[C@@H](C)CC)[C@@H](C)O)C(C)C)C(C)C)C(C)C)[C@@H](C)CC [CA-HS-CONH2] (H-KWKLFKKIEKVGQNIRDGIIKAGPAVAVVGQATQIAK[hSer]-NH2) | 0.86 | 0.06 ± 0.06 | 1.09 | 0.71 | 0.81 | 0 | 0.4 | 1.4 ± 0.2 |  |  |  |  |  | 
2 | cecropin D |  |  |  |  |  |  |  |  | relatively resistant |  |  |  |  | 
3 | CC[C@H](C)[C@H](NC(=O)CNC(=O)[C@H](CC(=O)O)NC(=O)[C@H](CCCNC(=N)N)NC(=O)[C@@H](NC(=O)[C@H](CC(N)=O)NC(=O)[C@H](CCC(N)=O)NC(=O)CNC(=O)[C@@H](NC(=O)[C@H](CCCCN)NC(=O)[C@H](CCC(=O)O)NC(=O)[C@@H](NC(=O)[C@H](CCCCN)NC(=O)[C@H](CCCCN)NC(=O)[C@H](Cc1ccccc1)NC(=O)[C@H](CC(C)C)NC(=O)[C@H](CCCCN)NC(=O)[C@H](Cc1c[nH]c2ccccc12)NC(=O)[C@@H](N)CCCCN)[C@@H](C)CC)C(C)C)[C@@H](C)CC)C(=O)N[C@H](C(=O)N[C@@H](CCCCN)C(=O)N[C@@H](C)C(=O)NCC(=O)N1CCC[C@H]1C(=O)N[C@@H](C)C(=O)N[C@H](C(=O)N[C@@H](C)C(=O)N[C@H](C(=O)N[C@H](C(=O)NCC(=O)N[C@@H](CCC(N)=O)C(=O)N[C@@H](C)C(=O)N[C@H](C(=O)N[C@@H](CCC(N)=O)C(=O)N[C@H](C(=O)N[C@@H](C)C(=O)N[C@@H](CCCCN)C(=O)N[C@@H](CCO)C(=O)O)[C@@H](C)CC)[C@@H](C)O)C(C)C)C(C)C)C(C)C)[C@@H](C)CC [CA-HS-COOH] (H-KWKLFKKIEKVGQNIRDGIIKAGPAVAVVGQATQIAK[hSer]-OH) | 0.79 | 0 | 1.07 | 0.76 | 0.86 | 0 | 0.5 | 0.1 ± 0.1 |  |  |  |  |  | 
4 | KWKLFKKIEKVGQNIRDGIIKAGPAVAVVGQATQIAK [CA-COOH] | 0.84 | 0 | 1.09 | 0.70 | 0.84 | 0 | 0.2 | 0 |  |  |  |  |  | 
5 | cecropin B (KWKVFKKIEKMGRNIRNGIVKAGPAIAVLGEAKAL; ends and bridges not checked; UniProt P01508 27-61, looked up) [major natural antibacterial peptide purified from immune hemolymph] |  |  |  |  |  |  |  |  | highly sensitive |  |  |  |  | 
6 | KWKLFKKIEKVGQNIRDGIIKAGPAVAVVGQATQIAK-NH2 [CA-NH2, cecropin A, reference compound] | 0.92 | 0.1 ± 0.05 | 1.06 | 0.70 | 0.80 | 0 | 0.7 | 1.2 ± 0.2 | highly sensitive | 6.1 | < 0.5 | < 0.5 | 5.1 | 6.1
